In ChEMBL document CHEMBL4052667 (Bioorg Med Chem, 2017):
Active and inactive are the calls of the source. No cut-off for these calls is given here.

Columns and labels:
[1] = molecular target: Poly [ADP-ribose] polymerase 1 (Homo sapiens, UniProt P09874); assay: Inhibition of recombinant full length human N-terminal GST-tagged PARP1 expressed in baculovirus infected Sf9 cells using biotinylated substrate after 1 hr by UV/Vis spectrophotometric analysis
[2] = molecular target: Poly [ADP-ribose] polymerase 2 (Homo sapiens, UniProt Q9UGN5); assay: Inhibition of recombinant human N-terminal GST-tagged PARP2 (2 to 583 residues) expressed in baculovirus infected Sf9 cells using biotinylated substrate after 1 hr by UV/Vis spectrophotometric analysis
Chain of Poly [ADP-ribose] polymerase 2 (Q9UGN5 whole entry, the tested form may be a part): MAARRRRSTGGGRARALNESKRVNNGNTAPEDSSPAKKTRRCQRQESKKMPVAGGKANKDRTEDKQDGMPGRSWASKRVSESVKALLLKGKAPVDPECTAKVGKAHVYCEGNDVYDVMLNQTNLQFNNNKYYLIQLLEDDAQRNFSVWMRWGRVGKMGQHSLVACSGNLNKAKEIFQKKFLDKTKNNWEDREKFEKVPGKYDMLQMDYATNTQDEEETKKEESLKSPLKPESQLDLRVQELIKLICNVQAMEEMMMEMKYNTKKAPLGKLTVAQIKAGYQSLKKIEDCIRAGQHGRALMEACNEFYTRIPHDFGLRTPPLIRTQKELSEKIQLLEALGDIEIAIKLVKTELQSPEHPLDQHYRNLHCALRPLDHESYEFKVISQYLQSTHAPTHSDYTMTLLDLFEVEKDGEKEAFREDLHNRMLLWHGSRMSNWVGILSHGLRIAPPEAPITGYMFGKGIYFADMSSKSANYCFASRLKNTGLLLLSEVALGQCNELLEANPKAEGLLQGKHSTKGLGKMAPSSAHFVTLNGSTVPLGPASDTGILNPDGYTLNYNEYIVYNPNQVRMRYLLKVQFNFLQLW

[3] = molecular target: Histone deacetylase 1 (Homo sapiens, UniProt Q13547); assay: Inhibition of HDAC1 (unknown origin) using acetylated peptide substrate preincubated for 15 mins followed by substrate addition measured after 60 mins by fluorescence analysis
Chain of Histone deacetylase 1 (Q13547 whole entry): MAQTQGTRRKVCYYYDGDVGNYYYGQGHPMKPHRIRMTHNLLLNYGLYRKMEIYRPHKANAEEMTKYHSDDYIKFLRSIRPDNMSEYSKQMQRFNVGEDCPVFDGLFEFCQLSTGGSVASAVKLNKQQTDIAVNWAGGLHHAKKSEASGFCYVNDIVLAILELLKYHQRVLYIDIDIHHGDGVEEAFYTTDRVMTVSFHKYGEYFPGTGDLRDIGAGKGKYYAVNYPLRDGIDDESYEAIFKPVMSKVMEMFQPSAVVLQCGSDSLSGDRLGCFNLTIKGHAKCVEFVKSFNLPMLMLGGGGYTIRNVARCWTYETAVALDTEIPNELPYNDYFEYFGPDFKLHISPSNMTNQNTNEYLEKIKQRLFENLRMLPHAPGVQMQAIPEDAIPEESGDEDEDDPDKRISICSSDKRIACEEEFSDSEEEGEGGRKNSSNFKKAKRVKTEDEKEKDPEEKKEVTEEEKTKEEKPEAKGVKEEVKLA

[4] = molecular target: T1, Protein deacetylase HDAC6 (Homo sapiens, UniProt Q9UBN7); assay: Inhibition of HDAC6 (unknown origin) using acetylated peptide substrate preincubated for 15 mins followed by substrate addition measured after 60 mins by fluorescence analysis
T1 sequence (Q9UBN7 whole entry): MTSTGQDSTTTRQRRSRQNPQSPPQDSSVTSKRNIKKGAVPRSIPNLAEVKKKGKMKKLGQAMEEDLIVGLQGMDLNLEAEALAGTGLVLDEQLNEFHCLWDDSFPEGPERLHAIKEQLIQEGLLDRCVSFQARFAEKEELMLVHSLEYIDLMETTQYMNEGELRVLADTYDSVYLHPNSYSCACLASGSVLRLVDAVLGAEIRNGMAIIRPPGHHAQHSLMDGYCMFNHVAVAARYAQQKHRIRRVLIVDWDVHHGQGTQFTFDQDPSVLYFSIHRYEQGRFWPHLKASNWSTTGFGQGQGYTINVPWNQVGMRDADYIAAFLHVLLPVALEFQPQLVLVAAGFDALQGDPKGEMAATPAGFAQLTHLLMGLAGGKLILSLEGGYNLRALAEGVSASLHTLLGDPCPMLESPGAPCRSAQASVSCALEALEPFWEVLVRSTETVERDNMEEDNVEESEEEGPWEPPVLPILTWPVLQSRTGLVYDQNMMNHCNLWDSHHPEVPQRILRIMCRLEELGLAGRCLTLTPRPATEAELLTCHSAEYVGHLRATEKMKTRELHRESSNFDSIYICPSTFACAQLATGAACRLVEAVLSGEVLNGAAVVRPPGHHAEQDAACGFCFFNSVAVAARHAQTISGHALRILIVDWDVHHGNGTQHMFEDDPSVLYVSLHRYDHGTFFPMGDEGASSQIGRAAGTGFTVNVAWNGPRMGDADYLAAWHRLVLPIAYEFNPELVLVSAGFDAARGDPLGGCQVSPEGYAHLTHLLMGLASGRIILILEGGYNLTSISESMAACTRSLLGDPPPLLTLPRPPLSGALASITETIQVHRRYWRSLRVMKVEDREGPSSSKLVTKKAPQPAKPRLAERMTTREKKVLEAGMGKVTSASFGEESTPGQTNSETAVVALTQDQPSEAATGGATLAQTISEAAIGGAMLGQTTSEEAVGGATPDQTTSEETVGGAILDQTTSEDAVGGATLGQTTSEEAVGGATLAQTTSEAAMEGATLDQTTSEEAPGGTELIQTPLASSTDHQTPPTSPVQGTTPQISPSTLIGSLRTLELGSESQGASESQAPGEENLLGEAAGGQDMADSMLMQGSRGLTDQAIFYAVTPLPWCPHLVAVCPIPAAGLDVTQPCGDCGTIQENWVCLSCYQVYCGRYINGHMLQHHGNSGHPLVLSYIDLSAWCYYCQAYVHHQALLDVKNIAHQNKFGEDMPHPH

[5] = system: T47D; assay: Antiproliferative activity against human T47D cells after 72 hrs by MTT assay; assay type: functional, cell-based
[6] = system: MCF7; assay: Antiproliferative activity against human MCF7 cells after 72 hrs by MTT assay; assay type: functional, cell-based; conditions: MCF7, 72 h
[7] = system: MDA-MB-231; assay: Antiproliferative activity against human MDA-MB-231 cells after 72 hrs by MTT assay; assay type: functional, cell-based; conditions: MDA-MB-231, 72 h
[8] = system: HCC827; assay: Antiproliferative activity against human HCC827 cells after 72 hrs by MTT assay; assay type: functional, cell-based; conditions: HCC827, 72 h
[9] = system: HeLa; assay: Antiproliferative activity against human HeLa cells after 72 hrs by MTT assay; assay type: functional, cell-based
[10] = system: K562; assay: Antiproliferative activity against human K562 cells after 72 hrs by MTT assay; assay type: functional, cell-based; conditions: K562, 72 h
[11] = system: U-937; assay: Antiproliferative activity against human U937 cells after 72 hrs by MTT assay; assay type: functional, cell-based; conditions: U-937, 72 h
[12] = system: MDA-MB-231; assay: Antiproliferative activity against human MDA-MB-231 cells after 5 days by MTT assay; assay type: functional, cell-based; conditions: MDA-MB-231, 120 h
[13] = system: MCF-10A; assay: Antiproliferative activity against human MCF10A cells after 72 hrs by MTT assay; assay type: cell-based
[14] = Safety index, ratio of compound IC50 to SAHA IC50 for human MCF10A cells; assay type: ADME, cell-based, MCF-10A; conditions: read-out: Ratio IC50
[15] = system: Raji; assay: Antiproliferative activity against human Raji cells after 3 days by MTT assay; assay type: functional, cell-based; conditions: 72 h
[16] = system: HCC1937; assay: Antiproliferative activity against human HCC1937 cells after 3 days by MTT assay; assay type: functional, cell-based; conditions: HCC1937, 72 h
[17] = system: Raji; assay: Potency index, ratio of SAHA IC50 to compound IC50 for human Raji cells; assay type: functional
[18] = system: MDA-MB-231; assay: Induction of apoptosis in human MDA-MB-231 cells assessed as early apoptotic cells at 2.5 uM after 48 hrs by Annexin V-FITC/propidium iodide staining based flow cytometry (reference value: 1.27%); assay type: functional
[19] = system: MDA-MB-231; assay: Induction of apoptosis in human MDA-MB-231 cells assessed as late apoptotic cells at 2.5 uM after 48 hrs by Annexin V-FITC/propidium iodide staining based flow cytometry (reference value: 3.82%); assay type: functional
[20] = system: MDA-MB-231; assay: Induction of apoptosis in human MDA-MB-231 cells assessed as necrotic cells at 2.5 uM after 48 hrs by Annexin V-FITC/propidium iodide staining based flow cytometry (reference value: 0.024%); assay type: functional
[21] = system: MDA-MB-231; assay: Induction of apoptosis in human MDA-MB-231 cells assessed as viable cells at 2.5 uM after 48 hrs by Annexin V-FITC/propidium iodide staining based flow cytometry (reference value: 94.9%); assay type: functional; conditions: MDA-MB-231, 48 h, read-out: Activity
[22] = system: MDA-MB-231; assay: Induction of apoptosis in human MDA-MB-231 cells assessed as early apoptotic cells at 5 uM after 48 hrs by Annexin V-FITC/propidium iodide staining based flow cytometry (reference value: 1.27%); assay type: functional
[23] = system: MDA-MB-231; assay: Induction of apoptosis in human MDA-MB-231 cells assessed as late apoptotic cells at 5 uM after 48 hrs by Annexin V-FITC/propidium iodide staining based flow cytometry (reference value: 3.82%); assay type: functional
[24] = system: MDA-MB-231; assay: Induction of apoptosis in human MDA-MB-231 cells assessed as necrotic cells at 5 uM after 48 hrs by Annexin V-FITC/propidium iodide staining based flow cytometry (reference value: 0.024%); assay type: functional
[25] = system: MDA-MB-231; assay: Induction of apoptosis in human MDA-MB-231 cells assessed as viable cells at 5 uM after 48 hrs by Annexin V-FITC/propidium iodide staining based flow cytometry (reference value: 94.9%); assay type: functional; conditions: MDA-MB-231, 48 h, read-out: Activity
[26] = system: MDA-MB-231; assay: Induction of apoptosis in human MDA-MB-231 cells assessed as early apoptotic cells at 10 uM after 48 hrs by Annexin V-FITC/propidium iodide staining based flow cytometry (reference value: 1.27%); assay type: functional
[27] = system: MDA-MB-231; assay: Induction of apoptosis in human MDA-MB-231 cells assessed as late apoptotic cells at 10 uM after 48 hrs by Annexin V-FITC/propidium iodide staining based flow cytometry (reference value: 3.82%); assay type: functional
[28] = system: MDA-MB-231; assay: Induction of apoptosis in human MDA-MB-231 cells assessed as necrotic cells at 10 uM after 48 hrs by Annexin V-FITC/propidium iodide staining based flow cytometry (reference value: 0.024%); assay type: functional
[29] = system: MDA-MB-231; assay: Induction of apoptosis in human MDA-MB-231 cells assessed as viable cells at 10 uM after 48 hrs by Annexin V-FITC/propidium iodide staining based flow cytometry (reference value: 94.9%); assay type: functional; conditions: MDA-MB-231, 48 h, read-out: Activity
[30] = system: MDA-MB-231; assay: Induction of apoptosis in human MDA-MB-231 cells assessed as reduction in full length PARP level measured after 24 hrs by Western blot analysis; assay type: functional, cell-based
[31] = system: MDA-MB-231; assay: Induction of apoptosis in human MDA-MB-231 cells assessed as increase in cleave PARP level measured after 24 hrs by Western blot analysis; assay type: functional, cell-based
[32] = species: Homo sapiens; assay: Inhibition of HDAC in human MDA-MB-231 cells assessed as increase in acetylation of histone H3K9 level up to 10 uM after 24 hrs by Western blot analysis; assay type: cell-based
[33] = species: Homo sapiens; assay: Inhibition of HDAC in human MDA-MB-231 cells assessed as increase in hyperacetylation of histone H4K8 level up to 10 uM after 24 hrs by Western blot analysis; assay type: cell-based
[34] = system: MDA-MB-231; assay: Induction of apoptosis in human MDA-MB-231 cells assessed as increase in gamma-H2AX level up to 10 uM after 24 hrs by Western blot analysis; assay type: functional, cell-based
[35] = system: MDA-MB-231; assay: Induction of apoptosis in human MDA-MB-231 cells assessed as increase in cleave caspase-3 level up to 10 uM measured after 24 hrs by Western blot analysis; assay type: functional, cell-based
[36] = system: MDA-MB-231; assay: Induction of apoptosis in human MDA-MB-231 cells assessed as increase in cleave caspase-7 level up to 10 uM measured after 24 hrs by Western blot analysis; assay type: functional, cell-based
[37] = system: MDA-MB-231; assay: Induction of apoptosis in human MDA-MB-231 cells assessed as increase in cleave caspase-8 level up to 10 uM measured after 24 hrs by Western blot analysis; assay type: functional, cell-based
[38] = system: MDA-MB-231; assay: Induction of apoptosis in human MDA-MB-231 cells assessed as increase in cleave caspase-9 level at 10 uM measured after 24 hrs by Western blot analysis; assay type: functional, cell-based
[39] = system: MDA-MB-231; assay: Decrease in BRCA1 protein level in human MDA-MB-231 cells up to 10 uM measured after 24 hrs by Western blot analysis; assay type: functional, cell-based
[40] = system: MDA-MB-231; assay: Decrease in RAd51 protein level in human MDA-MB-231 cells up to 10 uM measured after 24 hrs by Western blot analysis; assay type: functional, cell-based
[41] = system: MDA-MB-231; assay: Induction of apoptosis in human MDA-MB-231 cells after 48 hrs by Annexin V-FITC/propidium iodide staining based flow cytometry; assay type: functional, cell-based

Chain of Poly [ADP-ribose] polymerase 1 (P09874 whole entry, the tested form may be a part): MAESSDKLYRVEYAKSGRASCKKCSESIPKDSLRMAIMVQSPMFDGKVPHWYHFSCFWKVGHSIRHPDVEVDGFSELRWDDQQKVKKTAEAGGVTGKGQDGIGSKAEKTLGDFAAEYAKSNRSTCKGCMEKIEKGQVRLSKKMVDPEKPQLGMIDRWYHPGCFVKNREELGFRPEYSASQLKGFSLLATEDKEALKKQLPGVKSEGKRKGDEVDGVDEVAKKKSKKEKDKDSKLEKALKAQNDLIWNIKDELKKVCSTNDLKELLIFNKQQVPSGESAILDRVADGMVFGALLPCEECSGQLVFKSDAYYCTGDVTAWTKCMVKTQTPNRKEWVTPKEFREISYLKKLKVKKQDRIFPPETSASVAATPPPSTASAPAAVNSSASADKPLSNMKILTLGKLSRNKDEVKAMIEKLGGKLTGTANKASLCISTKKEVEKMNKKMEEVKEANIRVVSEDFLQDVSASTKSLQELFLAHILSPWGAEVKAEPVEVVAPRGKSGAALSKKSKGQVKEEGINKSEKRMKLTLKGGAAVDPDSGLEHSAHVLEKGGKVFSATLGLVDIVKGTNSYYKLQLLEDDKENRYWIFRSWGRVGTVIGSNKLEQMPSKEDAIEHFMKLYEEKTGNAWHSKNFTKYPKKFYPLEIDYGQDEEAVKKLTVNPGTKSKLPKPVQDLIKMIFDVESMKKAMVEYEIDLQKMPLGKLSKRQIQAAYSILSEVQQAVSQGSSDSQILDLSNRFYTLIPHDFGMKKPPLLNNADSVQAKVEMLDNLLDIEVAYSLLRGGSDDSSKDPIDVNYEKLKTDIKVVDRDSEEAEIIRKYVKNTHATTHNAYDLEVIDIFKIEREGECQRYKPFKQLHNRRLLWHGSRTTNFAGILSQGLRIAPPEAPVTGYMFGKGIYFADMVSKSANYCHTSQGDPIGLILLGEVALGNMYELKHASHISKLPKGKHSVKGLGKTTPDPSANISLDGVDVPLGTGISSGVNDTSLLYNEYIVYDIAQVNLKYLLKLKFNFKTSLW

O=C(/C=C/c1ccc(CCNC(=O)c2cc(Cc3n[nH]c(=O)c4ccccc34)ccc2F)cc1)NO showed an IC50 [1] of 68.2 nM, an IC50 [2] of 5.02 nM and an IC50 [3] of 27.3 nM. It also gave an IC50 [4] of 8.21 nM, an IC50 [5] of 2140 nM and an IC50 [6] of 3550 nM. It also gave an IC50 [7] of 1540 nM, an IC50 [8] of 1790 nM and an IC50 [9] of 5100 nM. For the same molecule, the IC50 [10] was 5550 nM, the IC50 [11] was 4500 nM and the IC50 [12] was 220 nM. For the same molecule, the IC50 [13] was 8650 nM, the selectivity ratio [14] was 4.1 and the IC50 [15] was 1290 nM. For the same molecule, the IC50 [16] was 2020 nM, the “Ratio IC50” value [17] was 7 and the Activity [18] was 10.4%. It also gave an Activity [19] of 8.03%, an Activity [20] of 2.29% and a viability at 2.5 µM [21] of 79.2%. The Activity [22] was 28.6%, the Activity [23] was 33.5% and the Activity [24] was 2.79%. The viability at 5 µM [25] was 35.1%, the Activity [26] was 47% and the Activity [27] was 45.8%. For the same molecule, the Activity [28] was 0.447%, the viability at 10 µM [29] was 6.79% and the Activity [30] was “Dose-dependent effect”. For the same molecule, the Activity [31] was “Dose-dependent effect”, the inhibition [32] was “Active” and the inhibition [33] was “Active”. For the same molecule, the Activity [34] was “Active”, the Activity [35] was “Active” and the Activity [36] was “Active”. The Activity [37] was “Active”, the Activity [38] was “Active” and the Activity [39] was “Active”. The Activity [40] was “Active” and the Activity [41] was “Dose-dependent effect”.
